The source of these data is US11452714B2, “Antibacterial agents including histidine kinase inhibitors” (Regents of the University of Minnesota, priority 2017, dated 2022).

The target of experiment [1] is T1, histidine kinase HK853 (Thermotoga maritima, UniProt Q9WZV7).
T1 sequence (Q9WZV7 232-489): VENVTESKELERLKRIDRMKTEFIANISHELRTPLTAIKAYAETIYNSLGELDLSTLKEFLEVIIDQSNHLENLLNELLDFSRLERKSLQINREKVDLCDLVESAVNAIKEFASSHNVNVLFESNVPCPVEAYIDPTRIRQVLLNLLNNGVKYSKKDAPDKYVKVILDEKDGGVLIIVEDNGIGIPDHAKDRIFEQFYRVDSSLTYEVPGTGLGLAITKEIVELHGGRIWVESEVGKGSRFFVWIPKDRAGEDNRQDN
Conditions: for inhibition of HK853: non-native bases or nucleosides, in words.
Method: (§1) Triton X-100 was premixed with reaction buffer to yield 0.1% (v/v) in final 25-μL reactions. Samples were mixed and incubated in the dark at RT for 1 h before quenching with 8.6 μL 2×SDS-PAGE sample loading buffer and loading 10 μL on a 10%0/stacking gel. After SDS-PAGE, in-gel fluorescence detection elucidated HK853 activity, and silver staining of the gels ensured even protein loading. Integrated density values of the fluorescent gel bands were normalized as “% Activity” with respect to a control that contained no inhibitor. Data were plotted in GraphPad Prism (available from GraphPad Software, San Diego, Calif.) with relation to the log of molar inhibitor to determine IC50 values, using EQUATION 1.

In experiment [2] the target is T2, HK853 (Thermotoga maritima, UniProt Q9WZV7).
T2 sequence (Q9WZV7 232-489): T1 sequence (Q9WZV7 232-489)
Conditions: for inhibition of HKs: in words; for IC50 values (95% confidence interval), n = 2: riluzole analogs, second TABLE 3, 0.1% Triton X-100.
Method: Triton X-100 was premixed with reaction buffer to yield 0.1% (v/v) in final 25-μL reactions. […] Samples were mixed and incubated in the dark at RT for 1 h before quenching with 8.6 μL 4×SDS-PAGE sample loading buffer and loading 15 μL on a 10% stacking gel. After SDS-PAGE, in-gel fluorescence detection elucidated HK853 activity, and coomassie staining of the gels ensured even protein loading. Integrated density values of the fluorescent gel bands were normalized as “% Activity” with respect to a control that contained no inhibitor.

Experiment [3] deals with T1, histidine kinase HK853. Nature of the experiment: biochemical.
Method: as §1
Where [4] appears, read: phenyl-adenine derivatives, first TABLE 3, N/I = no inhibition.
[5] abbreviates: adenine derivatives, TABLE 1, N/I = no inhibition was observed.
Where [6] appears, read: purine derivatives, TABLE 2, N/I = no inhibition.
The mark [7] stands for this setting: IC50, purine derivatives, TABLE 2, N/I = no inhibition.
[8] abbreviates: IC50, sulfonyl fluoride side chains, Example 4.

pIC50: −log10 of the molar value. Like-named read-outs stand apart in the source and are kept apart here.

Consider `OCC1OC(n2cnc3c(Nc4ccccc4)ncnc32)C(O)C1O` (stereo not drawn) [CW35], for which, in experiment [1] (setting [4]), the IC50 entry is “N/I”. On to `Nc1nc2c(Cl)cc(Cl)cc2s1` [Rilu-10], for which, in experiment [2], the “inhibition of HKs” value is reported as “did not significantly inhibit HKs” and the “IC50 values (95% confidence interval), n = 2” value is “No Inhibition”. For `OCC1OC(n2cnc3c(Cl)ncnc32)C(O)C1O` (stereo not drawn) [Compound C18], the IC50 entry in experiment [1] (setting [5]) is recorded as “N/I”. Consider `Fc1ccc(Nc2ncnc3[nH]cnc23)cc1` [CW38], for which, in experiment [3], the pIC50 (commonly the IC50 on a negative log10 scale, so that one unit is a factor of ten) was 2.72. On to `OCC1OC(n2cnc3c(Cl)ncnc32)C(O)C1O` (stereo not drawn) [CW19], for which the IC50 result in experiment [1] (setting [6]) was “N/I”. Take `Nc1nc2c(ncn2[C@@H]2O[C@H](CO)[C@@H](O)[C@H]2O)c(=O)[nH]1` [Guanosine, reference compound]: the “inhibition of HK853” value in experiment [1] is “did not appear to inhibit HK853”.

Consider `Nc1nc2nc[nH]c2c(=O)[nH]1` [Guanine, reference compound], for which, in experiment [1], the “inhibition of HK853” value is given as “did not appear to inhibit HK853”. In the case of `Cn1cnc2ncnc(N)c21` [CW30], in experiment [1] (setting [6]), the IC50 entry was “N/I”. With `Cn1cnc2c(N)ncnc21` [Compound C13], in experiment [3] (IC50, adenine derivatives, TABLE 1, N/I = no inhibition was observed), the pIC50 was 3.84. Molecule `Clc1ccc(Nc2ncnc3[nH]cnc23)cc1` [CW37] gave a pIC50 in experiment [3] of 2.77.

`OC[C@H]1O[C@@H](n2cnc3c(O)ncnc32)[C@H](O)[C@@H]1O` [Inosine, reference compound]: in experiment [1], the “inhibition of HK853” value is given as “did not appear to inhibit HK853”. `Nc1nc(Cl)c2nc[nH]c2n1` [CW20] showed a pIC50 in experiment [1] (setting [6]) of 3.93.

In experiment [3], `Nc1ncnc2c1ncn2C1OC(CO)C(O)C1O` (stereo not drawn) [Compound C12] showed a negative logarithm of the IC50 (pIC50) of 3.35. Molecule `Nc1nc(F)nc2c1ncn2C1OC(CO)C(O)C1O` (stereo not drawn) [CW25] had a pIC50 in experiment [3] (setting [7]) of 3.66. Regarding `CCCN(CCC)c1ncnc2c1ncn2C1OC(CO)C(O)C1O` (stereo not drawn) [Compound C19], in experiment [3], the negative logarithm of the IC50 (pIC50) was 2.96.

As for `Nc1ncnc2c1ncn2C1OC(COC(=O)c2ccccc2)C(O)C1O` (stereo not drawn), the negative-log IC50 (pIC50) in experiment [3] is 3.72.

For the molecule `Clc1nc(Nc2ccccc2)c2nc[nH]c2n1` [CW36], the IC50 result in experiment [1] (setting [4]) was “N/I”. Consider `c1ccc(Nc2ncnc3nc[nH]c23)cc1` [Compound C15], for which the negative logarithm of the IC50 (pIC50) in experiment [3] is 5.12. On to `Nc1nc(Cl)nc2[nH]cnc12` [CW22], for which the negative-log IC50 (pIC50) in experiment [1] (setting [6]) was 3.81. Regarding `Nc1nc2ccc(NCc3ccc(S(=O)(=O)F)cc3)cc2s1` [riluzole analog with benzyl SO2F], in experiment [3] (setting [8]), the negative-log IC50 (pIC50) is 5.68.

For the molecule `Cn1cnc2ncnc(N)c21` [Compound C26], the IC50 result in experiment [1] (setting [5]) is “N/I”. The molecule `Nc1ncnc2c1ncn2C1OC(COC(=O)c2ccc(S(=O)(=O)F)cc2)C(O)C1O` (stereo not drawn) [6-O-benzoyl adenosine, R=SO2F] had a negative-log IC50 (pIC50) in experiment [3] (setting [8]) of 5.28. Turning to `Cn1cnc2c(N)ncnc21` [CW29], the pIC50 in experiment [3] (setting [7]) is 3.82.

`Nc1nc2cc(Br)c(Br)cc2s1` [Rilu-11]: in experiment [2], the “inhibition of HKs” value is “did not significantly inhibit HKs” and the “IC50 values (95% confidence interval), n = 2” value was “No Inhibition”. `Nc1nc(F)nc2[nH]cnc12` [CW24] had a pIC50 in experiment [1] (setting [6]) of 3.51.
